Among the data in patent publication US10125134B2 (Mirati Therapeutics, Inc., priority 2016, dated 2018) are POC and IC50 values, retold here.

In general, IC50 refers to the concentration at which inhibition is half-maximal.

For one assay, the target named is KRas G12C (Homo sapiens, UniProt P01116, C118S/C51S/C80L/G12C). Description: KRas G12C Modification Assay (LCMS detection of covalent adduct). The assay is classed as binding. An outline of the steps:
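Covalent modification was read by reverse-phase LC/MS of intact protein after compound exposure, each reaction stopped at its time point with 25 mM acetic acid. Unmodified-protein signal, taken as percent of total, was normalised to untreated protein and reported as POC.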

For assay [1], the system named is NCI-H358 cells (express KRas G12C), Phospho-ERK. Description: Cellular inhibition of KRas G12C: Phospho-ERK in NCI-H358 cells. The assay is classed as cell-based. The settings on record: Homo sapiens. An outline of the steps: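 IC50 derived by 4-parameter fit of GAPDH-normalized pERK(Thr202/Tyr204) signal, as percent of DMSO control. Signal came from in-cell immunodetection with infrared secondaries after 3 h compound exposure of KRas G12C NCI-H358 cells at 0.5% DMSO.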

[2] abbreviates: normalized percent of control, tested at 5 μM concentration for 3 hours.
The mark [3] stands for this setting: NCI-H358, 3 h, pERK(Thr202/Tyr204) normalized with GAPDH, NCI-H358 cells, 3 hours, read-out: IC50.
Setting [4] is: pERK(Thr202/Tyr204) normalized with GAPDH, NCI-H358 cells, 3 hours, read-out: IC50.

Where two headings read alike, the source gives them in different places.

Take `CN1CCC[C@H]1COc1nc2c(c(N3CCN(C(=O)/C=C/CN4CCCCC4)[C@@H](CC#N)C3)n1)CCN(c1cccc3ccccc13)C2` [Example 236, 2-((S)-4-(2-(((S)-1-methylpyrrolidin-2-yl)methoxy)-7-(naphthalen-1-yl)-5,6,7,8-tetrahydropyrido[3,4-d]pyrimidin-4-yl)-1-(E-4-(piperidin-1-yl)but-2-enoyl)piperazin-2-yl)acetonitrile]: on KRas G12C (setting [2]), the POC result is on record as “C (“C”>50% POC)”. Moreover, the IC50 in assay [1] (setting [3]) was in the range of 0.1 to 1000 nM.
Take `C=CC(=O)N1CCN(c2nc(OC[C@@H]3CCCN3C)nc3c2CCN(c2ccccc2C(F)(F)F)C3)C[C@@H]1CC#N` [Example 237, 2-((S)-1-acryloyl-4-(2-(((S)-1-methylpyrrolidin-2-yl)methoxy)-7-(2-(trifluoromethyl)phenyl)-5,6,7,8-tetrahydropyrido[3,4-d]pyrimidin-4-yl)piperazin-2-yl)acetonitrile 2,2,2-trifluoroacetate]: the POC entry at KRas G12C (setting [2]) is given as “C (“C”>50% POC)”. Besides, in assay [1] (setting [3]), the IC50 is 0.1 to 1000 nM.
On to `C=CC(=O)N1CCN(c2nc(OC[C@@H]3CCCN3C)nc3c2CCN(c2c(C)ccc4cn[nH]c24)C3)CC1CC#N` (stereo partly drawn) [Example 238, 2-(1-acryloyl-4-(7-(6-methyl-1H-indazol-7-yl)-2-(((S)-1-methylpyrrolidin-2-yl)methoxy)-5,6,7,8-tetrahydropyrido[3,4-d]pyrimidin-4-yl)piperazin-2-yl)acetonitrile], for which, at KRas G12C (setting [2]), the POC result was “C (“C”>50% POC)”. In assay [1] (setting [3]), the IC50 was 0.1 to 1000 nM.
Consider `C=CC(=O)N1CCN(c2nc(OC[C@@H]3CCCN3C)nc3c2CCN(c2ccncc2C(F)(F)F)C3)CC1CC#N` (stereo partly drawn) [Example 239, 2-(1-acryloyl-4-(2-(((S)-1-methylpyrrolidin-2-yl)methoxy)-7-(3-(trifluoromethyl)pyridin-4-yl)-5,6,7,8-tetrahydropyrido[3,4-d]pyrimidin-4-yl)piperazin-2-yl)acetonitrile], for which the POC result on KRas G12C (setting [2]) is listed as “C (“C”>50% POC)”. Besides, in assay [1] (setting [3]), the IC50 is greater than 1000 nM.
The corresponding values for `C=CC(=O)N1CCN(c2nc(OC[C@@H]3CCCN3C)nc3c2CCN(c2ccccc2CC(F)(F)F)C3)CC1CC#N` (stereo partly drawn) [Example 240, 2-(1-acryloyl-4-(2-(((S)-1-methylpyrrolidin-2-yl)methoxy)-7-(2-(2,2,2-trifluoroethyl)phenyl)-5,6,7,8-tetrahydropyrido[3,4-d]pyrimidin-4-yl)piperazin-2-yl)acetonitrile] are “C (“C”>50% POC)” and greater than 1000 nM.
Turning to `CN1CCC[C@H]1COc1nc2c(c(N3CCN(C(=O)OCc4ccccc4)C(CC#N)C3)n1)CCN(c1ncccc1C(F)(F)F)C2` (stereo partly drawn) [Example 241, benzyl 2-(cyanomethyl)-4-(2-(((S)-1-methylpyrrolidin-2-yl)methoxy)-7-(3-(trifluoromethyl)pyridin-2-yl)-5,6,7,8-tetrahydropyrido[3,4-d]pyrimidin-4-yl)piperazine-1-carboxylate], the POC entry on KRas G12C (setting [2]) is “C (“C”>50% POC)”. The IC50 in assay [1] (setting [3]) is greater than 1000 nM.
`C=CC(=O)N1CCN(c2nc(OC[C@H]3CCCN3C)nc3c2CCN(c2c(C(F)(F)F)ccc4[nH]ncc24)C3)CC1CC#N` (stereo partly drawn) [Example 243, 2-[4-[2-[[(2R)-1-methylpyrrolidin-2-yl]methoxy]-7-[5-(trifluoromethyl)-1H-indazol-4-yl]-6,8-dihydro-5H-pyrido[3,4-d]pyrimidin-4-yl]-1-prop-2-enoyl-piperazin-2-yl]acetonitrile]: the POC result on KRas G12C (setting [2]) is reported as “C (“C”>50% POC)”. The IC50 in assay [1] (setting [3]) lay in the range of 0.1 to 1000 nM.
Consider `C=CC(=O)N1CCN(c2nc(OC[C@@H]3CCCN3C)nc3c2CCN(c2cccc4ccc(C)cc24)C3)CC1CC#N` (stereo partly drawn) [Example 245, 2-[4-[7-(7-methyl-1-naphthyl)-2-[[(2S)-1-methylpyrrolidin-2-yl]methoxy]-6,8-dihydro-5H-pyrido[3,4-d]pyrimidin-4-yl]-1-prop-2-enoyl-piperazin-2-yl]acetonitrile], for which the POC entry on KRas G12C (setting [2]) is “C (“C”>50% POC)”. Besides, the IC50 in assay [1] (setting [4]) lay within 0.1 to 1000 nM.
For `C=CC(=O)N1CCN(c2nc(OC[C@@H]3CCCN3C)nc3c2CCN(c2ccc(F)c4ccccc24)C3)CC1CC#N` (stereo partly drawn) [Example 246, 2-[4-[7-(4-fluoro-1-naphthyl)-2-[[(2S)-1-methylpyrrolidin-2-yl]methoxy]-6,8-dihydro-5H-pyrido[3,4-d]pyrimidin-4-yl]-1-prop-2-enoyl-piperazin-2-yl]acetonitrile], the POC entry on KRas G12C (setting [2]) is “C (“C”>50% POC)”. Further, the IC50 in assay [1] (setting [3]) was 0.1 to 1000 nM.
As to `C=CC(=O)N1CCN(c2nc(OC[C@@H]3CCCN3C)nc3c2CCN(c2cccc4cccnc24)C3)CC1CC#N` (stereo partly drawn) [Example 247, 2-(1-acryloyl-4-(2-(((S)-1-methylpyrrolidin-2-yl)methoxy)-7-(quinolin-8-yl)-5,6,7,8-tetrahydropyrido[3,4-d]pyrimidin-4-yl)piperazin-2-yl)acetonitrile], the POC result on KRas G12C (setting [2]) is recorded as “C (“C”>50% POC)”. Further, in assay [1] (setting [3]), the IC50 is greater than 1000 nM.
For the compound `C=CC(=O)N1CCN(c2nc(OC[C@@H]3CCCN3C)nc3c2CCN(c2c(C(C)C)ccc4[nH]ncc24)C3)CC1` [Example 248, (S)-1-(4-(7-(5-isopropyl-1H-indazol-4-yl)-2-((1-methylpyrrolidin-2-yl)methoxy)-5,6,7,8-tetrahydropyrido[3,4-d]pyrimidin-4-yl)piperazin-1-yl)prop-2-en-1-one], on KRas G12C (5 µM), the POC result is listed as “C (key: “A”≤25% POC; “B”>25% POC−≤50% POC; “C”>50% POC)”. Moreover, the IC50 in assay [1] (NCI-H358, 3 h) was greater than 1000 nM.
With `C=CC(=O)N1CCN(c2nc(OC[C@@H]3CCCN3C)nc3c2CCN(c2c(F)c(O)cc4ccccc24)C3)CC1` [Example 249, 1-[4-[7-(2-fluoro-3-hydroxy-1-naphthyl)-2-[[(2S)-1-methylpyrrolidin-2-yl]methoxy]-6,8-dihydro-5H-pyrido[3,4-d]pyrimidin-4-yl]piperazin-1-yl]prop-2-en-1-one], the POC entry at KRas G12C (setting [2]) was “C (“C”>50% POC)”. The half-inhibitory concentration (IC50) in assay [1] (setting [4]) fell in the range of 0.1 to 1000 nM.
In the case of `C=CC(=O)N1CCN(c2nc(OC[C@@H]3CCCN3C)nc3c2CCN(c2c(Cl)ccc4[nH]ncc24)C3)CC1` [Example 250, 1-[4-[7-(5-chloro-1H-indazol-4-yl)-2-[[(2S)-1-methylpyrrolidin-2-yl]methoxy]-6,8-dihydro-5H-pyrido[3,4-d]pyrimidin-4-yl]piperazin-1-yl]prop-2-en-1-one], the POC entry at KRas G12C (setting [2]) is “C (“C”>50% POC)”. Also, in assay [1] (setting [3]), the IC50 is greater than 1000 nM.
Turning to `C=CC(=O)N1CCN(c2nc(OC[C@@H]3CCCN3C(C)C)nc3c2CCN(c2cccc4ccccc24)C3)CC1CC#N` (stereo partly drawn) [Example 252, 2-[4-[2-[[(2S)-1-isopropylpyrrolidin-2-yl]methoxy]-7-(1-naphthyl)-6,8-dihydro-5H-pyrido[3,4-d]pyrimidin-4-yl]-1-prop-2-enoyl-piperazin-2-yl]acetonitrile], the POC entry at KRas G12C (setting [2]) is reported as “C (“C”>50% POC)”. Further, the half-maximal inhibitory concentration (IC50) in assay [1] (setting [4]) fell in the range of 0.1 to 1000 nM.
Take `C=CC(=O)N1CCN(c2nc(OC[C@@H]3CCCN3C)nc3c2CCN(c2cccc4ccc(Cl)cc24)C3)CC1CC#N` (stereo partly drawn) [Example 253, 2-(1-acryloyl-4-(7-(7-chloronaphthalen-1-yl)-2-(((S)-1-methylpyrrolidin-2-yl)methoxy)-5,6,7,8-tetrahydropyrido[3,4-d]pyrimidin-4-yl)piperazin-2-yl)acetonitrile]: at KRas G12C (setting [2]), the POC result is on record as “C (“C”>50% POC)”. The IC50 in assay [1] (setting [3]) is 0.1 to 1000 nM.
